This is an account of results in paper PMC3658555 (ACS Chemical Biology, 2013).

Assay [1] concerns the target T1, β2AR (Homo sapiens, UniProt P07550). Kind of assay: GloSensor cAMP formation assay. The format is cell-based. The settings on record: from cAMP formation and β-arrestin recruitment. (Changes in cAMP serve as a functional read-out for many G protein-coupled receptors.)
The target in assay [2] is T1, β2AR. Put plainly: Bias factor by the operational model, β-arrestin recruitment. The format is cell-based.

T1 sequence (P07550 whole entry): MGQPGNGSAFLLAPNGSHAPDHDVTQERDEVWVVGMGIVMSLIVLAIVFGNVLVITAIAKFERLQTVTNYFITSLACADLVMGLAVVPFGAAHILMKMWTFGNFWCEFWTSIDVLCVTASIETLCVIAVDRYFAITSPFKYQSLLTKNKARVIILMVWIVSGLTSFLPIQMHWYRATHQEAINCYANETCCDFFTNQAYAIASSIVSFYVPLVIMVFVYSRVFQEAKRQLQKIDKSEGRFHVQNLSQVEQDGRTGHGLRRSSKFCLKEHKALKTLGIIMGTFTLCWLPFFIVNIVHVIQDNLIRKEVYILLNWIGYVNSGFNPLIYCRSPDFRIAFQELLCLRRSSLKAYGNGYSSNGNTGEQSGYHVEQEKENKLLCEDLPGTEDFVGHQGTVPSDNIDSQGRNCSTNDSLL

Regarding `CC(Cc1ccc2c(c1)OCO2)NCC(O)c1ccc(O)c(O)c1` (stereo not drawn) [Compound 12, protokylol], on β2AR [1], the “agonist efficacy class at β2AR” value is recorded as “full agonists”. Moreover, the “times more efficacious in β-arrestin recruitment than in G protein-mediated cAMP production” value on β2AR [2] (compared to isoproterenol, the unbiased reference) is reported as “approximately 10 times”. Further, the bias factor result at β2AR [2] (toward β-arrestin, from both Tango and DiscoveRx β-arrestin against Glosensor cAMP data sets, reference isoproterenol) is recorded as “around 1”.
